According to PubChem BioAssay (NCI):
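The compound was tested at five concentrations on cells cultured in 96-well plates, with a 48-hour exposure period. Here, GI50 denotes the concentration required for 50% inhibition of growth. The concentration for full growth arrest is given as TGI.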

Experiments:
Experiment in all cases: NCI anticancer screen, dose series, 48 h
OVCAR-3 ovarian = test system: OVCAR-3 ovarian
T-47D breast = test system: T-47D breast
CCRF-CEM leukemia = test system: CCRF-CEM leukemia
786-0 renal = test system: 786-0 renal
BT-549 breast = test system: BT-549 breast
HOP-92 NSCLC = test system: HOP-92 NSCLC
LOX IMVI melanoma = test system: LOX IMVI melanoma
RXF 393 renal = test system: RXF 393 renal
SN12C renal = test system: SN12C renal
HOP-62 NSCLC = test system: HOP-62 NSCLC
SR leukemia = test system: SR leukemia
HCT-116 colon = test system: HCT-116 colon
COLO 205 colon = test system: COLO 205 colon
UO-31 renal = test system: UO-31 renal
OVCAR-4 ovarian = test system: OVCAR-4 ovarian
TK-10 renal = test system: TK-10 renal
M14 melanoma = test system: M14 melanoma
EKVX NSCLC = test system: EKVX NSCLC
SNB-19 CNS = test system: SNB-19 CNS
RPMI-8226 leukemia = test system: RPMI-8226 leukemia
SK-MEL-28 melanoma = test system: SK-MEL-28 melanoma
U251 CNS = test system: U251 CNS
OVCAR-5 ovarian = test system: OVCAR-5 ovarian
PC-3 prostate = test system: PC-3 prostate
A549 NSCLC = test system: A549 NSCLC
NCI/ADR-RES ovarian = test system: NCI/ADR-RES ovarian
MCF7 breast = test system: MCF7 breast
HT29 colon = test system: HT29 colon
UACC-257 melanoma = test system: UACC-257 melanoma
KM12 colon = test system: KM12 colon
NCI-H226 lung = test system: NCI-H226 lung
HS 578T breast = test system: HS 578T breast
NCI-H522 lung = test system: NCI-H522 lung
NCI-H460 lung = test system: NCI-H460 lung
SF-268 CNS = test system: SF-268 CNS
OVCAR-8 ovarian = test system: OVCAR-8 ovarian
MDA-MB-231 breast = test system: MDA-MB-231 breast
DU-145 prostate = test system: DU-145 prostate
IGROV1 ovarian = test system: IGROV1 ovarian
MALME-3M melanoma = test system: MALME-3M melanoma
SK-OV-3 ovarian = test system: SK-OV-3 ovarian
MDA-MB-435 = test system: MDA-MB-435
HCT-15 colon = test system: HCT-15 colon
SNB-75 CNS = test system: SNB-75 CNS
UACC-62 melanoma = test system: UACC-62 melanoma
ACHN renal = test system: ACHN renal
K-562 leukemia = test system: K-562 leukemia
SK-MEL-5 melanoma = test system: SK-MEL-5 melanoma
SK-MEL-2 melanoma = test system: SK-MEL-2 melanoma
NCI-H23 lung = test system: NCI-H23 lung
SW-620 colon = test system: SW-620 colon
SF-295 CNS = test system: SF-295 CNS
CAKI-1 renal = test system: CAKI-1 renal
MOLT-4 leukemia = test system: MOLT-4 leukemia
SF-539 CNS = test system: SF-539 CNS
A498 renal = test system: A498 renal
HL-60(TB) leukemia = test system: HL-60(TB) leukemia
HCC-2998 colon = test system: HCC-2998 colon

C=C1C[C@H](O)[C@H]2C(C[Se]c3ccccc3)C(=O)O[C@@H]2[C@H]2[C@H](C)C(O)C[C@@H]12 (some centres undefined)
TGI (OVCAR-3 ovarian): 98.6 µM
TGI (T-47D breast): > 100 µM
TGI (CCRF-CEM leukemia): > 100 µM
TGI (786-0 renal): 99.3 µM
TGI (BT-549 breast): 98.4 µM
TGI (HOP-92 NSCLC): > 100 µM
TGI (LOX IMVI melanoma): 51.4 µM
TGI (RXF 393 renal): 50.2 µM
TGI (SN12C renal): 65 µM
TGI (HOP-62 NSCLC): > 100 µM
TGI (SR leukemia): > 100 µM
TGI (HCT-116 colon): 56.4 µM
TGI (COLO 205 colon): > 100 µM
TGI (UO-31 renal): 63.7 µM
TGI (OVCAR-4 ovarian): > 100 µM
TGI (TK-10 renal): > 100 µM
TGI (M14 melanoma): > 100 µM
TGI (EKVX NSCLC): > 100 µM
TGI (SNB-19 CNS): > 100 µM
TGI (RPMI-8226 leukemia): 98 µM
TGI (SK-MEL-28 melanoma): > 100 µM
TGI (U251 CNS): 30.8 µM
TGI (OVCAR-5 ovarian): 55 µM
TGI (PC-3 prostate): > 100 µM
TGI (A549 NSCLC): > 100 µM
TGI (NCI/ADR-RES ovarian): 51.6 µM
TGI (MCF7 breast): > 100 µM
TGI (HT29 colon): > 100 µM
TGI (UACC-257 melanoma): > 100 µM
TGI (KM12 colon): > 100 µM
TGI (NCI-H226 lung): 83.9 µM
TGI (HS 578T breast): > 100 µM
TGI (NCI-H522 lung): 38.1 µM
TGI (NCI-H460 lung): > 100 µM
TGI (SF-268 CNS): > 100 µM
TGI (OVCAR-8 ovarian): > 100 µM
TGI (MDA-MB-231 breast): 38.1 µM
TGI (DU-145 prostate): > 100 µM
TGI (IGROV1 ovarian): 93.1 µM
TGI (MALME-3M melanoma): > 100 µM
TGI (SK-OV-3 ovarian): > 100 µM
TGI (MDA-MB-435): > 100 µM
TGI (HCT-15 colon): 33.9 µM
TGI (SNB-75 CNS): > 100 µM
TGI (UACC-62 melanoma): 64.1 µM
TGI (ACHN renal): 76.3 µM
TGI (K-562 leukemia): > 100 µM
TGI (SK-MEL-5 melanoma): > 100 µM
TGI (SK-MEL-2 melanoma): > 100 µM
TGI (NCI-H23 lung): 40.7 µM
TGI (SW-620 colon): 94.8 µM
TGI (SF-295 CNS): > 100 µM
TGI (CAKI-1 renal): > 100 µM
TGI (MOLT-4 leukemia): > 100 µM
TGI (SF-539 CNS): > 100 µM

CO/N=C(\COc1ccc2c(=O)cc(-c3ccccc3)oc2c1)c1ccc(F)cc1
GI50 (OVCAR-3 ovarian): 14 µM
TGI (OVCAR-3 ovarian): 47.7 µM
GI50 (T-47D breast): 68.4 µM
TGI (T-47D breast): > 100 µM
GI50 (CCRF-CEM leukemia): > 100 µM
TGI (CCRF-CEM leukemia): > 100 µM
GI50 (786-0 renal): 20.7 µM
TGI (786-0 renal): 49.8 µM
GI50 (BT-549 breast): > 100 µM
TGI (BT-549 breast): > 100 µM
GI50 (LOX IMVI melanoma): 67.5 µM
TGI (LOX IMVI melanoma): > 100 µM
GI50 (RXF 393 renal): 27.7 µM
TGI (RXF 393 renal): 87.5 µM
GI50 (SN12C renal): 36.2 µM
TGI (SN12C renal): > 100 µM
GI50 (HOP-62 NSCLC): 21 µM
TGI (HOP-62 NSCLC): 50.5 µM
GI50 (SR leukemia): 14.5 µM
TGI (SR leukemia): 47.2 µM
GI50 (HCT-116 colon): 28.4 µM
TGI (HCT-116 colon): > 100 µM
GI50 (COLO 205 colon): > 100 µM
TGI (COLO 205 colon): > 100 µM
GI50 (UO-31 renal): > 100 µM
TGI (UO-31 renal): > 100 µM
GI50 (OVCAR-4 ovarian): 58.2 µM
TGI (OVCAR-4 ovarian): > 100 µM
GI50 (TK-10 renal): 41.7 µM
TGI (TK-10 renal): > 100 µM
GI50 (A498 renal): > 100 µM
TGI (A498 renal): > 100 µM
GI50 (M14 melanoma): 36.1 µM
TGI (M14 melanoma): > 100 µM
GI50 (EKVX NSCLC): 74.4 µM
TGI (EKVX NSCLC): > 100 µM
GI50 (HL-60(TB) leukemia): 21 µM
TGI (HL-60(TB) leukemia): > 100 µM
GI50 (RPMI-8226 leukemia): > 100 µM
TGI (RPMI-8226 leukemia): > 100 µM
GI50 (SK-MEL-28 melanoma): 89.4 µM
TGI (SK-MEL-28 melanoma): > 100 µM
GI50 (U251 CNS): 29.2 µM
TGI (U251 CNS): 88.5 µM
GI50 (OVCAR-5 ovarian): 42.1 µM
TGI (OVCAR-5 ovarian): > 100 µM
GI50 (PC-3 prostate): 37.9 µM
TGI (PC-3 prostate): > 100 µM
GI50 (A549 NSCLC): 30.6 µM
TGI (A549 NSCLC): > 100 µM
GI50 (NCI/ADR-RES ovarian): 34.4 µM
TGI (NCI/ADR-RES ovarian): > 100 µM
GI50 (HT29 colon): 33.6 µM
TGI (HT29 colon): > 100 µM
GI50 (UACC-257 melanoma): 32.1 µM
TGI (UACC-257 melanoma): > 100 µM
GI50 (KM12 colon): 53.8 µM
TGI (KM12 colon): > 100 µM
GI50 (NCI-H226 lung): > 100 µM
TGI (NCI-H226 lung): > 100 µM
GI50 (HS 578T breast): 51.5 µM
TGI (HS 578T breast): > 100 µM
GI50 (NCI-H522 lung): 23.1 µM
TGI (NCI-H522 lung): 62.3 µM
GI50 (OVCAR-8 ovarian): 40.7 µM
TGI (OVCAR-8 ovarian): > 100 µM
GI50 (MDA-MB-231 breast): 27.7 µM
TGI (MDA-MB-231 breast): 64 µM
GI50 (DU-145 prostate): 76.1 µM
TGI (DU-145 prostate): > 100 µM
GI50 (IGROV1 ovarian): 21.9 µM
TGI (IGROV1 ovarian): 66.6 µM
GI50 (MALME-3M melanoma): 19.3 µM
TGI (MALME-3M melanoma): 45.9 µM
GI50 (SK-OV-3 ovarian): 41.4 µM
TGI (SK-OV-3 ovarian): > 100 µM
GI50 (MDA-MB-435): 10.3 µM
TGI (MDA-MB-435): 37.1 µM
GI50 (HCT-15 colon): 63.9 µM
TGI (HCT-15 colon): > 100 µM
GI50 (SNB-75 CNS): 24.1 µM
TGI (SNB-75 CNS): 55 µM
GI50 (UACC-62 melanoma): 29.8 µM
TGI (UACC-62 melanoma): > 100 µM
GI50 (ACHN renal): 34 µM
TGI (ACHN renal): > 100 µM
GI50 (K-562 leukemia): 36.5 µM
TGI (K-562 leukemia): > 100 µM
GI50 (HCC-2998 colon): 32.3 µM
TGI (HCC-2998 colon): 96 µM
GI50 (SK-MEL-5 melanoma): 35.1 µM
TGI (SK-MEL-5 melanoma): > 100 µM
GI50 (SK-MEL-2 melanoma): 24 µM
TGI (SK-MEL-2 melanoma): 60.4 µM
GI50 (NCI-H23 lung): 92.7 µM
TGI (NCI-H23 lung): > 100 µM
GI50 (SW-620 colon): 42.6 µM
TGI (SW-620 colon): > 100 µM
GI50 (SF-295 CNS): 25.8 µM
TGI (SF-295 CNS): 56.9 µM
GI50 (CAKI-1 renal): 22.7 µM
TGI (CAKI-1 renal): 65.6 µM
GI50 (SF-539 CNS): 94.8 µM
TGI (SF-539 CNS): > 100 µM
